Reference: US20260042764A1, “COMPOSITIONS AND METHODS FOR INHIBITION OF KRAS” (TheRas, Inc., priority 2022, published 2026)

Experiments:
[1] = system: SW620 cells (KRAS G12V); experiment: Cell-based pERK HTRF assay in SW620 cell (Biological Example 4); details: pERK HTRF
Summary of the method: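 SW620 cells were treated for 4 h with compound in a 9-point half-log series from 1 μM top (0.25% DMSO), then lysed. Phospho-ERK was detected by HTRF with d2 and Eu cryptate antibodies after 4–24 h at room temperature, read at 615 nm emission.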

[2] = molecular target: T1, Avi-KRAS WT (1-169) GppNHp/RAF1 RBD-3xFLAG (52-151) (Homo sapiens, UniProt P01116); experiment: Raf1-KRAS WT-GppNHP disruption HTRF assay (Biological Example 1); type: binding
T1 construct: Avi-KRAS WT (1-169)
Summary of the method: (§1)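 Compounds were tested for disruption of KRAS–RAF1 RBD binding by HTRF in 50 mM Tris pH 7.5, 100 mM NaCl, 5 mM MgCl2, 0.1% BSA, 0.01% Tween, 10% DMSO. Protein mix was incubated 1 h at room temperature with shaking, then detection reagents added for another 1 h. Activity expressed as percent of DMSO control.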

[3] = molecular target: T2, Avi-KRAS G12V (1-169) GppNHp/RAF1 RBD-3xFLAG (52-151) (Homo sapiens, UniProt P01116, G12V); experiment: Raf1-KRAS G12V-GppNHP disruption HTRF assay (Biological Example 1); type: binding
T2 construct: Avi-KRAS G12V (1-169)
Summary of the method: as §1

[4] = system: GP2d cells (KRAS G12D); experiment: Cell-based pERK HTRF assay in GP2d cell (Biological Example 2); details: GP2d (KRAS G12D) cells, pERK HTRF
Summary of the method: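 Phospho-ERK is measured by HTRF following a 60 min compound exposure at 0.25% DMSO, with a 9-point half-log curve topping at 1 μM or 100 nM.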

[5] = molecular target: T3, Avi-KRAS G12D (1-169) GppNHp/RAF1 RBD-3xFLAG (52-151) (Homo sapiens, UniProt P01116, G12D); experiment: Raf1-KRAS G12D-GppNHP disruption HTRF assay (Biological Example 1); type: binding
T3 construct: Avi-KRAS G12D (1-169)
Summary of the method: as §1

[6] = molecular target: T4, Avi-KRAS G12R (1-169) GppNHp/RAF1 RBD-3xFLAG (52-151) (Homo sapiens, UniProt P01116, G12R); experiment: Raf1-KRAS G12R-GppNHP disruption HTRF assay (Biological Example 1); type: binding
T4 construct: Avi-KRAS G12R (1-169)
Summary of the method: as §1

[7] = Homo sapiens, SW-620, SW620 (KRAS G12V) cells
[8] = Homo sapiens, SW-620, SW620 (KRAS G12V) cells, class symbols
[9] = KRAS WT, GppNHp-loaded, class symbols
[10] = KRAS G12V, GppNHp-loaded, class symbols
[11] = KRAS G12D, GppNHp-loaded, class symbols
[12] = KRAS G12R, GppNHp-loaded, class symbols

T1 sequence (P01116 1-169 isoform P01116-2): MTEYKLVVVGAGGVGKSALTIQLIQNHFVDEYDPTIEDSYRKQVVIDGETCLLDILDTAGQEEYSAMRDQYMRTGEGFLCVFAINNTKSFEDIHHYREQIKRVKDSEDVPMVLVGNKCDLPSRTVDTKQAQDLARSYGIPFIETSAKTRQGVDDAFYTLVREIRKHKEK
T3 sequence (P01116 1-169 isoform P01116-2 G12D): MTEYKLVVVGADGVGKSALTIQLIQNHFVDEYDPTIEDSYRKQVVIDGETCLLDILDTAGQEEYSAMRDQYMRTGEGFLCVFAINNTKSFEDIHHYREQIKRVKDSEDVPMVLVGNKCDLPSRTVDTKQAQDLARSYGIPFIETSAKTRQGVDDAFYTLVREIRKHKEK
T2 sequence (P01116 1-169 isoform P01116-2 G12V): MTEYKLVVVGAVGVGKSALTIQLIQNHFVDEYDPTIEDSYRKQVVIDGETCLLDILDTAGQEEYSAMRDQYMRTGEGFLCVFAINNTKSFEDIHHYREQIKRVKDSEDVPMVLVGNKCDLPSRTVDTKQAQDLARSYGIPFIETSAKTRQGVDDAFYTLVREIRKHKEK
T4 sequence (P01116 1-169 isoform P01116-2 G12R): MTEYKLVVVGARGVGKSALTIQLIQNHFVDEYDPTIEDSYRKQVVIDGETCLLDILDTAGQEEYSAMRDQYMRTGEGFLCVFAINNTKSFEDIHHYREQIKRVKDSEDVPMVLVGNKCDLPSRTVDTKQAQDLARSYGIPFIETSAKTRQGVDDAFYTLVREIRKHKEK

| SMILES | IC50 [1, 7] | IC50 ([2]; KRAS WT-GppNHp/RAF1 RBD HTRF) | IC50 ([3]; KRAS G12V-GppNHp/RAF1 RBD HTRF) | IC50 ([4]; GP2d) | IC50 ([5]; KRAS G12D-GppNHp/RAF1 RBD HTRF) | IC50 ([6]; KRAS G12R-GppNHp/RAF1 RBD HTRF) | IC50 [1, 8] | IC50 [2, 9] | IC50 [3, 10] | IC50 ([4]; GP2d, class symbols) | IC50 [5, 11] | IC50 [6, 12] | also measured |
| --- | --- | --- | --- | --- | --- | --- | --- | --- | --- | --- | --- | --- | --- |
| CC(=O)N1C[C@@H](N(C)c2nc(OC[C@@]34CCCN3C[C@H](F)C4)nc3c(F)c(-c4ccc(F)c5sc(N)c(C#N)c45)c(C(F)(F)F)cc23)C[C@@H]1CF [Compound 454] | < 100 nM | 100 to 1000 nM | 100 to 1000 nM | < 100 nM | 100 to 1000 nM | 100 to 1000 nM |  |  |  |  |  |  |  |
| CCN(c1nc(OC[C@@]23CCCN2C[C@H](F)C3)nc2c(F)c(-c3ccc(F)c4sc(N)c(C#N)c34)c(C(F)(F)F)cc12)[C@H]1C[C@H]2CN(C(C)C)C(=O)N2C1 (atropisomer, axis not shown) [Compound 784] |  |  |  |  |  |  | < 100 nM | < 100 nM | 100 to 1000 nM | < 100 nM | < 100 nM | < 100 nM |  |
| N#Cc1c(N)sc2c(F)ccc(-c3c(C(F)(F)F)cc4c(N5CCn6nc(C(=O)N7CC[C@H](O)C7)cc6C5)nc(OC[C@@]56CCCN5C[C@H](F)C6)nc4c3F)c12 [Compound 500] | 100 to 1000 nM | 100 to 1000 nM | 100 to 1000 nM | < 100 nM | 100 to 1000 nM | 100 to 1000 nM |  |  |  |  |  |  |  |
| CCN(c1nc(OC[C@@]23CCCN2C[C@H](F)C3)nc2c(F)c(-c3ccc(F)c4sc(N)c(C#N)c34)c(C(F)(F)F)cc12)[C@H]1CCN(C(=O)OCC2CC2)C1 (atropisomer, axis not shown) [Compound 620] |  |  |  |  |  |  | < 100 nM | 100 to 1000 nM | < 100 nM | < 100 nM | < 100 nM | < 100 nM |  |
| CCC(=O)N1CC[C@@H](N(C)c2nc(OC[C@@]34CCCN3C[C@H](F)C4)nc3c(F)c(-c4ccc(F)c5sc(N)c(C#N)c45)c(Cl)cc23)[C@H]1C [Compound 399] | < 100 nM | 100 to 1000 nM | 100 to 1000 nM | < 100 nM | 100 to 1000 nM | 100 to 1000 nM |  |  |  |  |  |  |  |
| N#Cc1c(N)sc2c(F)ccc(-c3c(C(F)(F)F)cc4c(N5C[C@H]6C[C@H](O)[C@@H]5C6)nc(OC[C@@]56CCCN5C[C@H](F)C6)nc4c3F)c12 [Compound 361] | < 100 nM | 100 to 1000 nM | 1000 to 10000 nM | < 100 nM | 100 to 1000 nM | 100 to 1000 nM |  |  |  |  |  |  |  |
| CC(=O)N1CC[C@H](N(C)c2nc(OC[C@@]34CCCN3C[C@H](F)C4)nc3c(F)c(-c4ccc(F)c5sc(N)c(C#N)c45)c(C(F)(F)F)cc23)[C@@H]1C (single isomer, unassigned) [Compound 194] |  |  |  |  |  |  |  |  |  |  |  |  | IC50 ([1]; SW620 (KRAS G12V) cells): > 1000 nM; IC50 ([2]; KRAS WT, GppNHp-loaded, Table 11): > 10000 nM; IC50 ([3]; KRAS G12V, GppNHp-loaded, Table 11): > 10000 nM; IC50 [4]: > 1000 nM; IC50 ([5]; KRAS G12D, GppNHp-loaded, Table 11): > 10000 nM; IC50 ([6]; KRAS G12R, GppNHp-loaded, Table 11): > 10000 nM |
| CN(C)C(=O)[C@H]1CN(c2nc(OC[C@@]34CCCN3C[C@H](F)C4)nc3c(F)c(-c4ccc(F)c5sc(N)c(C#N)c45)c(C(F)(F)F)cc23)CCO1 [Compound 465] | < 100 nM | 100 to 1000 nM | 100 to 1000 nM | < 100 nM | < 100 nM | 100 to 1000 nM |  |  |  |  |  |  |  |
| C=C(F)C(=O)N1CC[C@H](N(CC)c2nc(OC[C@@]34CCCN3C[C@H](F)C4)nc3c(F)c(-c4ccc(F)c5sc(N)c(C#N)c45)c(C(F)(F)F)cc23)C1 (atropisomer, axis not shown) [Compound 676] |  |  |  |  |  |  | < 100 nM | < 100 nM | < 100 nM | < 100 nM | < 100 nM | < 100 nM |  |
| CN(c1nc(OC[C@@]23CCCN2C[C@H](F)C3)nc2c(F)c(-c3ccc(F)c4sc(N)c(C#N)c34)c(C(F)(F)F)cc12)[C@@H]1CC(=O)N2CCC[C@H]12 [Compound 479] | < 100 nM | 100 to 1000 nM | 100 to 1000 nM | < 100 nM | 100 to 1000 nM | 100 to 1000 nM |  |  |  |  |  |  |  |
| CCN(c1nc(OC[C@@]23CCCN2C[C@H](F)C3)nc2c(F)c(-c3ccc(F)c4sc(N)c(C#N)c34)c(C(F)(F)F)cc12)[C@H]1CCN(C(=O)OC2CC2)C1 (atropisomer, axis not shown) [Compound 599] |  |  |  |  |  |  | < 100 nM | < 100 nM | < 100 nM | < 100 nM | < 100 nM | < 100 nM |  |
| CCN(c1nc(OC[C@@]23CCCN2C[C@H](F)C3)nc2c(F)c(-c3ccc(F)c4sc(N)c(C#N)c34)c(C(F)(F)F)cc12)[C@H]1C[C@@H](C)N(C(=O)[C@H](C)OC)C1 (atropisomer, axis not shown) [Compound 753] |  |  |  |  |  |  | < 100 nM | 100 to 1000 nM | 100 to 1000 nM | < 100 nM | 100 to 1000 nM | 100 to 1000 nM |  |
| CN1C[C@H](N(C)c2nc(OC[C@@]34CCCN3C[C@H](F)C4)nc3c(F)c(-c4ccc(F)c5sc(N)c(C#N)c45)c(C(F)(F)F)cc23)CCC1=O [Compound 441] | < 100 nM | 100 to 1000 nM | 1000 to 10000 nM | < 100 nM | 1000 to 10000 nM | 1000 to 10000 nM |  |  |  |  |  |  |  |
| CN(c1nc(OC[C@@]23CCCN2C[C@H](F)C3)nc2c(F)c(-c3ccc(F)c4sc(N)c(C#N)c34)c(C(F)(F)F)cc12)[C@H]1C[C@H](CF)N(C(=O)C2CC2)C1 [Compound 462] | < 100 nM | 100 to 1000 nM | 100 to 1000 nM | < 100 nM | 100 to 1000 nM | 100 to 1000 nM |  |  |  |  |  |  |  |
| N#Cc1c(N)sc2c(F)ccc(-c3c(C(F)(F)F)cc4c(N(C5CC5)[C@H]5CCN(C(=O)[C@H]6CCO6)C5)nc(OC[C@@]56CCCN5C[C@H](F)C6)nc4c3F)c12 (atropisomer, axis not shown) [Compound 812] |  |  |  |  |  |  | < 100 nM | 100 to 1000 nM | 100 to 1000 nM | < 100 nM | < 100 nM | 100 to 1000 nM |  |
| CC[C@@H](C)C(=O)N1CC[C@H](N(CC)c2nc(OC[C@@]34CCCN3C[C@H](F)C4)nc3c(F)c(-c4ccc(F)c5sc(N)c(C#N)c45)c(C(F)(F)F)cc23)C1 (atropisomer, axis not shown) [Compound 563] | < 100 nM | 100 to 1000 nM | 100 to 1000 nM | < 100 nM | < 100 nM | 100 to 1000 nM |  |  |  |  |  |  |  |
| Cc1ccc(CN(C)c2nc(OC[C@@]34CCCN3C[C@H](F)C4)nc3c(F)c(-c4ccc(F)c5sc(N)c(C#N)c45)c(C(F)(F)F)cc23)c(N)n1 (atropisomer, axis not shown) [Compound 736] |  |  |  |  |  |  | 100 to 1000 nM | 1000 to 10000 nM | 100 to 1000 nM | < 100 nM | 100 to 1000 nM | 100 to 1000 nM |  |
